Test results published in patent US5663159A, “Prodrugs of phosphonates” (Institute of Organic Chemistry and Biochemistry of the …, priority 1994, dated 1997).
In brackets after ≈: the same amount, converted by molar mass. Entries after “also recorded” stand apart in the source; their conditions may differ. Counter-ions that a name gives are not always drawn. Like-named read-outs stand apart in the source and are kept apart here.

Key:
[1] = tested on: phocid herpesvirus type 1 (seal herpesvirus, SeHV); details: literature; cited from earlier work
[2] = tested on: human cytomegalovirus (HCMV); details: literature; cited from earlier work
[3] = tested on: herpes simplex virus type 1; details: rabbits in vivo; including herpetic keratitis caused by a TK^- mutant; cited from earlier work
[4] = tested on: murine sarcoma virus (MSV); details: literature; cited from earlier work
[5] = tested on: herpes simplex virus type 1; details: mice in vivo; including herpetic keratitis caused by a TK^- mutant; cited from earlier work
[6] = tested on: simian herpesvirus platyrrhinae (HVP); details: literature; cited from earlier work
[7] = tested on: herpes simplex virus, type 1 (HSV-1); details: literature; cited from earlier work
adenovirus = details: literature; cited from earlier work
[8] = tested on: equid herpesviruse type 1 (equine abortion virus, EHV-1); details: literature; cited from earlier work
[9] = tested on: herpes simplex virus, type 2 (HSV-2); details: literature; cited from earlier work
[10] = tested on: thymidine kinase-deficient (TK^-) mutants of herpes simplex; details: literature; cited from earlier work
[11] = tested on: varicella zoster virus (VZV); details: literature; cited from earlier work
vaccinia virus = details: literature; cited from earlier work
[12] = tested on: African swine fever (ASF) virus; details: literature; cited from earlier work
[13] = tested on: bovid herpesvirus type 1 (infectious bovine rhinotracheitis virus, BHV-1); details: literature; cited from earlier work
[14] = tested on: suid herpesvirus type 1 (SHV-1, or pseudorabies virus or Aujeszky's disease virus); details: literature; cited from earlier work
P388 leukemia = details: murine tumor model; cited from earlier work
[15] = tested on: Rauscher murine leukemia virus (R-MuLV); details: mice; vs 3'-azido-3'-deoxythymidine (AZT); cited from earlier work
[16] = tested on: murine cytomegalovirus (MCMV); details: cited from earlier work
HSV-2 (G STRAIN) = assay: In vitro activity of PMEA prodrugs against HSV-2 (G strain), plaque reduction; type: cell-based; details: for IC50: Human alphaherpesvirus 2, dose which gives a 50% reduction of plaque formation, read-out: ID50 (the source's name); for ID50: dose which gives a 50% reduction of plaque formation
Excerpt: PRODRUGS AGAINST HSV-2 (G STRAIN)
^a DOSE WHICH GIVES A 50% REDUCTION OF PLACQUE FORMATION

[17] = tested on: human immunodeficiency virus (HIV); details: literature, cited from earlier work
[18] = tested on: Rauscher murine leukemia virus (R-MuLV); details: cited from earlier work
[19] = Toxicity in the in vitro HSV-2 test
HSV 1 = details: in vivo, mice; more potent than acyclovir; cited from earlier work
B16 melanoma = details: murine tumor model; cited from earlier work
herpes viruses = details: cited from earlier work

In the case of `Nc1ncnc2c1ncn2C[C@@H](CO)OCP(=O)(O)O` [(S)-HPMPA, (S)-9-((3-hydroxy-2-phosphonylmethoxy)propyl)adenine], the “activity against SeHV” value [1] is listed as “potent and selective activity”, the “activity against HCMV” value [2] is listed as “potent and selective activity” and the “efficacy against local and systemic HSV-1 infections” value [3] is listed as “effective”. The “activity against MSV” value [4] was “potent and selective activity”, the “efficacy against local and systemic HSV-1 infections” value [5] was “effective” and the “activity against HVP” value [6] was “potent and selective activity”. The “activity against HSV-1” value [7] was “potent and selective activity; also recorded: active”, the activity against adenovirus (adenovirus) was “potent and selective activity; also recorded: active” and the “activity against EHV-1” value [8] was “potent and selective activity”. For the same molecule, the “activity against HSV-2” value [9] was “potent and selective activity; also recorded: active”, the “activity against TK^- mutants of herpes simplex” value [10] was “potent and selective activity” and the “activity against VZV” value [11] was “potent and selective activity; also recorded: active”. The “activity against vaccinia virus” value (vaccinia virus) was “potent and selective activity; also recorded: active”, the “activity against ASF virus” value [12] was “potent and selective activity” and the “activity against BHV-1” value [13] was “potent and selective activity”. The “activity against SHV-1” value [14] was “potent and selective activity” and the “activity against intraperitoneal P388 leukemia” value (P388 leukemia) was “active”.
For `Nc1ccn(C[C@@H](CO)OCP(=O)(O)O)c(=O)n1` [(S)-HPMPC], the “activity against HCMV” value [2] is listed as “active”, the “activity against HSV-1” value [7] is listed as “active” and the “activity against HSV-2” value [9] is listed as “active”.
In the case of `Nc1nc(N)c2ncn(C[C@@H](CO)OCP(=O)(O)O)c2n1` [(S)-HPMPDAP], the “activity against HSV-1” value [7] is given as “active” and the “activity against HSV-2” value [9] is given as “active”.
In the case of `Nc1nc2c(ncn2C[C@@H](CO)OCP(=O)(O)O)c(=O)[nH]1` [(S)-HPMPG], the “activity against HSV-1” value [7] is given as “active” and the “activity against HSV-2” value [9] is given as “active”.
For `Nc1ncnc2c1ncn2C[C@H]1COP(=O)(O)CO1` [(S)-cyclic HPMPA], the “activity against HSV-1” value [7] is listed as “active”, the activity against adenovirus (adenovirus) is listed as “active” and the “activity against HSV-2” value [9] is listed as “active”. The “activity against VZV” value [11] was “active” and the “activity against vaccinia virus” value (vaccinia virus) was “active”.
In the case of `Nc1ncnc2c1ncn2CCOCP(=O)(O)O` [Example 1, 9-(2-Phosphonylmethoxy)ethyladenine], the “activity against HCMV” value [2] is given as “in vitro activity”, the “potency in vivo relative to AZT in the treatment of R-MuLV” value [15] is given as “more potent in vivo” and the CC50 (in vitro) is given as over 166 µg/mL. The “antiviral effect in vivo against MCMV” value [16] was “significant antiviral effect”, the IC50 (HSV-2 (G STRAIN)) was 39 µg/mL (≈ 143 µM) and the “activity against HSV-1” value [7] was “active”. For the same molecule, the “activity against HSV-2” value [9] was “active”, the “activity against intraperitoneal P388 leukemia” value (P388 leukemia) was “active” and the “activity against HIV” value ([17]; listed as PMEA) was “active; also recorded: good in vitro activity”. The “in vitro activity against R-MuLV” value [18] was “good in vitro activity”.
For `CC(C)(C)C(=O)OCOP(=O)(COCCn1cnc2c(N)ncnc21)OCOC(=O)C(C)(C)C` [Example 9, PMEA, di(pivaloyloxymethyl ester)], the CC50 (in vitro) was 100 µg/mL (≈ 199 µM) and the IC50 (HSV-2 (G STRAIN)) was 0.28 µg/mL (≈ 0.558 µM).
`CCC(=O)OCOP(=O)(COCCn1cnc2c(N)ncnc21)OCOC(=O)CC` [Example 12, PMEA, di-(propionyloxymethyl ester)] gave a CC50 (in vitro) of 100 µg/mL (≈ 225 µM) and an IC50 (HSV-2 (G STRAIN)) of 0.17 µg/mL (≈ 0.382 µM).
Work on `CC(C)C(=O)OCOP(=O)(COCCn1cnc2c(N)ncnc21)OCOC(=O)C(C)C` [Example 13, PMEA, di-(isobutyrloxymethyl ester)] yielded a CC50 (in vitro) of 100 µg/mL (≈ 211 µM) and an IC50 (HSV-2 (G STRAIN)) of under 0.1 µg/mL.
With `CC(C)(C)C(=O)OCOP(=O)(O)COCCn1cnc2c(N)ncnc21` [Example 15, PMEA, mono pivaloyloxymethyl ester] the IC50 (HSV-2 (G STRAIN)) was 8.1 µg/mL (≈ 20.9 µM) and the CC50 [19] was 100 µg/mL (≈ 258 µM).
With `CC(C)OP(=O)(COCCn1cnc2c(N)ncnc21)Oc1ccccc1` (centres unmarked) [Example 16, PMEA, (mono isopropyl, monophenyl) ester] the ID50 (HSV-2 (G STRAIN)) was over 100 µg/mL and the CC50 [19] was 100 µg/mL (≈ 256 µM).
In the case of `Nc1ncnc2c1ncn2CCOCP(=O)(O)OCCCO` [Example 22, PMEA, 3-hydroxypropanyl ester, (sodium salt)], the CC50 (in vitro) was over 166 µg/mL and the IC50 (HSV-2 (G STRAIN)) was 110 µg/mL.
In the case of `Nc1ncnc2c1ncn2CCOCP(=O)(O)Oc1ccccc1` [Example 34, PMEA, monophenyl ester (sodium salt)], the ID50 (HSV-2 (G STRAIN)) was 42 µg/mL and the CC50 [19] was over 166 µg/mL.
With `Nc1ncnc2c1ncn2CCOCP(=O)(Oc1ccccc1)Oc1ccccc1` [Example 35, PMEA, diphenyl ester] the ID50 (HSV-2 (G STRAIN)) was 34 µg/mL (≈ 79.9 µM) and the CC50 [19] was over 166 µg/mL.
In the case of `Nc1nc(N)c2ncn(CCOCP(=O)(O)O)c2n1` [PMEDAP], the “activity against HSV-1” value [7] is listed as “active”, the “activity against HSV-2” value [9] is listed as “active” and the “activity against HIV” value [17] is listed as “active”.
In the case of `Nc1nc2c(ncn2CCOCP(=O)(O)O)c(=O)[nH]1` [PMEG], the “potency relative to acyclovir against HSV 1 infection” value (HSV 1) is listed as over 50 fold, the “activity against B16 melanoma” value (B16 melanoma) is listed as “active” and the “activity against HSV-1” value [7] is listed as “active”. For the same molecule, the “in vitro potency against herpes viruses” value (herpes viruses) was “exceptionally potent”, the “activity against HSV-2” value [9] was “active” and the “activity against intraperitoneal P388 leukemia” value (P388 leukemia) was “active”.
In the case of `Nc1ncc2ncn(CCOCP(=O)(O)O)c2n1` [PMEMAP], the “activity against HIV” value [17] is listed as “active”.
